Assay results published in patent US20140323575A1, “TYROSINE ISOMERS AS THERAPEUTIC AGENTS” (CONSEJO NACIONAL DE INVESTIGACIONES CIENTIFICAS Y TECNICAS …, priority 2011, published 2014).

Columns and labels:
[1] = test system: inhibitory activity present in serum from LB tumor-bearing mice; assay: Titer of growth-inhibitory activity in serum from drug-treated LB tumor-bearing mice; format: in vivo; details: for effect on serum inhibitory activity of LB tumor-bearing mice: treatment of LB tumor-bearing mice
LB tumor cells [2] = assay: Rescue of in vitro LB tumor inhibition mediated by m- or o-tyrosine by co-culturing with amino acids; format: cell-based, mice; details: co-culture with m- or o-tyrosine
Protocol: (§1) Each point (percentage of cpm incorporated by LB cells as compared with the control) represents the mean±SE of 3 experiments. Significance versus control, meta-tyrosine and peak 2: P<0.001 at >2.75 μg/mL; peak 2: P<0.05 at 2.75 μg/mL. ortho-tyrosine P<0.001 at 500 to 125 μg/mL; P<0.002 at 30 μg/mL. Peak 3: P<0.002 and P<0.01, at 31 and 15.5 μg/mL, respectively. Rescue of in vitro LB tumor inhibition mediated by meta-tyrosine (150 μg/mL)(B) or ortho-tyrosine (150 μg/mL) (C) by co-culturing with 150 μg/mL of individual protein amino acids. Each value represents the mean±SE of 8 to 18 determinations for (B) and 4 to 9 determinations for (C). a, P<0.01; c, P<0.001 versus meta- or ortho-tyrosine. Data with saline was similar to data obtained with each amino acid alone.

LB tumor cells [3] = assay: In vitro LB tumor cell proliferation ([3H]-thymidine uptake); format: cell-based, mice; details: even with high concentrations
Protocol: as §1
Fractionation of serum from mice bearing a subcutaneous LB tumor (size≧2,000 mm^3) was carried out through several steps of purification (FIG. 1). Serum from normal mice was similarly fractioned as control. At all stages of the purification, the presence of the inhibitory factor was monitored by the [^3H]-thymidine uptake assay as a measure of LB tumor cell proliferation. First, serum was decomplemented and subjected to dialysis. The inhibitory factor was recovered only in the dialyzable fraction (MW<12,500 Da) and was then concentrated by lyophilization and applied successively to Sephadex G-25 and G-15 chromatographic columns, where activity was recovered at fractions corresponding to a molecular weight below 1,000 Da. These fractions were lyophilized and further purified with an HPLC column C18 in a gradient of acetonitrile in TFA (first HPLC). In 12 similar and independent experiments, growth inhibitory activity was systematically recovered in only 1 fraction eluted at near 20% acetonitrile (FIG. 2).
To test directly whether a “cocktail” of amino acids similar to that detected close to the “primary site” was more counteracting of the antitumor effects produced by m- and o-tyrosine than a “secondary site cocktail,” different concentrations of a mixture of m-tyrosine and o-tyrosine (ratio 1:1) were assayed on LB tumor cell proliferation, alone or together with a primary or a secondary site cocktail of amino acids.

LB tumor = assay: In vivo growth of s.c. LB tumor implants (primary, secondary under CR, established, ascitic); design: species or system mice
Protocol: Twenty mice received an s.c. implant of 1×10^6 LB cells in the right flank, and, 7 days later, an s.c. secondary implant of 1×10^5 LB tumor cells in the left flank. […] The remaining 10 mice received 0.2 mL of phenylalanine (500 μg/mL) at the site of the secondary implant, daily, for 8 days, starting 1 hour after the secondary inoculum [CR+Phe (-□-)]. Controls were 10 mice receiving 1×10^5 LB tumor cells in the left flank only [control (-Δ-)]. A fourth group received the tumor inoculum in the left flank but also meta-tyrosine at the site of tumor implant (0.2 mL of 500 μg/mL, n=10) or by the intraperitoneal route (0.5 mL of 1,000 μg/mL, n=6), daily, for 8 days, starting 1 hour after tumor inoculum [control+m-Tyr: (-▴-)]. A fifth group received the tumor inoculum in the left flank and also meta-tyrosine (0.2 mL of 500 μg/mL, n=5) at the site of tumor growth, daily for 5 days, starting (see arrow) when LB was an established tumor measuring 60 to 70 mm^3 [est. LB+m-Tyr: (-X-)]. Abscissa, days after tumor implant in the left flank. Ordinate, volume of the tumors implanted in the left flank. CR and control+m-Tyr versus control: P<0.001 at day 9 and P<0.002 at days 5 and 7; CR and control+m-Tyr versus CR+Phe: P<0.001 at days 5, 7 and […]; est. LB+m-Tyr versus control and CR+Phe: P<0.002 at day 9. Control+tyrosine or saline, control; CR+tyrosine or saline, CR. FIG. 6B is a microscopic view showing many tumor cells expressing Ki-67 protein in both CR+phenylalanine (B1) and control (B2) groups and few tumor cells expressing Ki-67 in both CR (B3) and control+meta-tyrosine (B4) groups (H×400). FIG. 6C illustrates a representative experiment showing the frequency distribution histogram of viable LB cells from a control tumor (C1), from a secondary tumor inhibited by CR (C2), and from a tumor inhibited by periodic intraumoral injection of meta-tyrosine (C3). Samples of tumor cells were collected 9 days after the s.c. inoculation of 1×10^5 LB tumor cells.

MC-C tumor = assay: In vivo growth of s.c. MC-C fibrosarcoma implants; design: species or system mice; details: secondary MC-C implant in primary tumor-bearing mice, 0.2 ml of 500 μg/ml daily for 19 days at the site
Protocol: Twelve mice received a s.c. implant of 5×10^6 MC-C tumor cells in the right flank and 25 days later they received a secondary implant of 2×10^6 MC-C tumor cells in the left flank. […] The remaining 6 mice received 0.2 ml of phenylalanine (500 μg/ml) at the site of the secondary implant, daily, for 19 days, starting 1 hour later than the secondary implant. These secondary implants grew as in 6 controls only receiving the implant in the left flank (tumor volumes of secondary tumor+phenylalanine and of controls, 20 days after the implant in the left flank were =680±152 mm^3 and 524±88 mm^3, respectively). […] Significance: Secondary tumor vs. control: p<0.01; vs. secondary tumor+phenylalanine: p<0.02. Control+m-tyrosine vs. control and vs. secondary tumor+phenylalanine: p<0.02.

CEI tumor = assay: In vivo growth of s.c. CEI epidermoid carcinoma implants; design: species or system mice; details: secondary CEI implant in primary tumor-bearing mice, 0.2 ml of 500 μg/ml daily for 19 days at the site
Protocol: Twelve mice received a s.c. implant of 1×10^6 CEI tumor cells in the right flank and 28 days later they received a secondary implant of 3×10^5 CEI tumor cells in the left flank. […] The remaining 6 mice received 0.2 ml of phenylalanine (500 μg/ml) at the site of the secondary implant, daily, for 19 days, starting 1 hour later than the secondary implant. These secondary implants grew as in 6 controls only receiving the implant in the left flank (tumor volumes of secondary tumor+phenylalanine and of controls, 20 days after the implant in the left flank were 358±38 mm^3 and 373±93 mm^3, respectively). […] Significance: Secondary tumor and control+m-tyrosine vs. control: p<0.01; vs. secondary tumor+phenylalanine: p<0.001.

ERK1 and ERK2 = assay: Western blot of p-ERK 1/2 in LB tumor cells; format: cell-based, mice; details: added together with m-tyrosine, 250 μg/mL each, 3 minutes
Protocol: (§2) FIG. 8 illustrates the effect of meta-tyrosine on the expression of phosphorylated (p)-Erk 1/2 and p-STAT3 in LB tumor cells using Western blot: 3×10^5 LB tumor cells in 0.1 mL of medium were cultured in the presence of 0.1 mL of meta-tyrosine (m-Tyr; 250 μg/mL), phenylalanine (Phe, 250 μg/mL), meta-tyrosine (250 μg/mL)+phenylalanine (250 μg/mL), or saline for 3 minutes (to measure p-ERK 1/2) or for 8 hours (to measure p-STAT3). Positive control was obtained by treating LB cells with pervanadate. Controls with acting, total ERK 1/2, and total STAT3 were also added. FIG. 8A illustrates a representative experiment showing p-ERK 1/2 expression. FIG. 8B is a histogram showing the mean of 5 experiments; a, P<0.01 versus saline and versus meta-tyrosine+phenylalanine; P<0.02 versus phenylalanine. FIG. 8C illustrates a representative experiment showing p-STAT3 expression. […]
(§3) On this basis, we analyzed, first, the effect of m-tyrosine on ERK1 and ERK2 as 2 examples of protein kinases that are activated by the mitogen activated protein/extracellular signal-regulated kinase (MAP/ERK) signal transduction pathway that normally couples intracellular responses associated with cell proliferation, to the binding of growth factors to cell surface receptors (Kohno M, and Pouyssegur J. 2006. Targeting the ERK signaling pathway in cancer therapy. Ann Med; 38:200-211). […]

STAT3 = assay: Western blot of p-STAT3 in LB tumor cells; format: cell-based, mice; details: added together with m-tyrosine, 250 μg/mL each, 8 hours
Protocol: as §2, §3

[4] = serum of mice bearing s.c. LB tumor >2,000 mm^3, agent i.p. 48 and 24 hours before testing, titer = reciprocal of serum dilution producing 50% inhibition of [3H]thymidine uptake by LB cells

In the case of CC(CN1c2ccccc2Sc2ccccc21)N(C)C (centres unmarked) [Promethazine, promethazine], the “GIU50/mL (X ± SE)” value [1, 4] is reported as 80 ± 9 GIU50/mL and the “effect on serum inhibitory activity of LB tumor-bearing mice” value (“effect on serum inhibitory activity” below) [1] is reported as “significant reduction”.
N[C@@H](Cc1c[nH]cn1)C(=O)O [histidine] was tested, and the “counteracting of the inhibitory effect produced by m- and o-tyrosine” value (LB tumor cells [2]) was “only counteracted the inhibitory effect produced by m-tyrosine”.
For CC(Cc1ccc(O)c(O)c1)C(C)Cc1ccc(O)c(O)c1 (centres unmarked) [NDGA, nordihydroguaiaretic acid], the “GIU50/mL (X ± SE)” value [1, 4] was 116 ± 14 GIU50/mL and the “effect on serum inhibitory activity” value [1] was “significant reduction”.
With Catalase the “GIU50/mL (X ± SE)” value [1, 4] was 49 ± 5 GIU50/mL and the “effect on serum inhibitory activity” value [1] was “significant reduction”.
With NC(=O)CC[C@H](N)C(=O)O [glutamine] the “counteracting of the inhibitory effect produced by m- and o-tyrosine” value (LB tumor cells [2]) was “counteracted”.
In the case of COc1ccc2c(c1)c(CC(=O)O)c(C)n2C(=O)c1ccc(Cl)cc1 [INDO, indomethacin], the “GIU50/mL (X ± SE)” value ([1]; ip) is reported as 142 ± 16 GIU50/mL and the “effect on serum inhibitory activity” value [1] is reported as “significant reduction”.
CCCCc1nc(Cl)c(CO)n1Cc1ccc(-c2ccccc2-c2nn[nH]n2)cc1 [Losartant, losartan] was tested, and the “GIU50/mL (X ± SE)” value ([1]; ip) was 300 ± 30 GIU50/mL and the “effect on serum inhibitory activity” value [1] was “did not reduce”.
With CN(C)CCCN1c2ccccc2Sc2ccc(Cl)cc21 [Chlorpromazine, chlorpromazine] the “GIU50/mL (X ± SE)” value ([1]; ip) was 84 ± 19 GIU50/mL and the “effect on serum inhibitory activity” value [1] was “significant reduction”.
For O=C1CCN(c2ccccc2)N1 [Phenidone, phenidone], the “GIU50/mL (X ± SE)” value [1, 4] was 103 ± 19 GIU50/mL and the “effect on serum inhibitory activity” value [1] was “significant reduction”.
For N[C@@H](CCC(=O)O)C(=O)O [glutamic acid], the “counteracting of the inhibitory effect produced by m- and o-tyrosine” value (LB tumor cells [2]) was “counteracted”.
In the case of N[C@@H](CC(=O)O)C(=O)O [aspartic acid], the “counteracting of the inhibitory effect produced by m- and o-tyrosine” value (LB tumor cells [2]) is reported as “counteracted”.
N[C@@H](Cc1ccc(O)cc1)C(=O)O [tyrosine, 4-hydroxyphenylalanine] was tested, and the “effect on LB cells in vitro” value (LB tumor cells [3]) was “innocuous” and the “counteracting of the inhibitory effect produced by m- and o-tyrosine” value (LB tumor cells [2]) was “did not reduce”.
In the case of N[C@@H](Cc1ccccc1)C(=O)O [phenylalanine, reference compound], the “counteracting of the inhibitory effect produced by m- and o-tyrosine” value (LB tumor cells [2]) is reported as “counteracted”, the “expression of Ki-67 protein in tumor cells” value (LB tumor; control+m-tyrosine tumors or secondary implants treated with phenylalanine (FIG. 6B)) is reported as “high expression” and the “growth of secondary LB tumor implant otherwise inhibited by CR” value (LB tumor; periodically inoculated at the site of the secondary implant) is reported as “grew similarly to controls”. For the same compound, the “tumor volume of secondary tumor 20 days after the implant in the left flank” value (MC-C tumor) was 680±152 mm^3, the “tumor volume of secondary tumor 20 days after the implant in the left flank” value (CEI tumor) was 358±38 mm^3 and the “effect on the m-tyrosine-induced reduction of ERK1/ERK2 activation” value (ERK1 and ERK2) was “reversed that effect”. For the same compound, the “effect on the m-tyrosine-induced reduction of STAT3 activation” value (STAT3) was “reversed that effect”.
For COC(=O)[C@@H](N)CCCNC(=N)N[N+](=O)[O-] [L-NAME], the “GIU50/mL (X ± SE)” value [1, 4] was 266 ± 34 GIU50/mL and the “effect on serum inhibitory activity” value [1] was “did not reduce”.
For C[C@@H]1C[C@H]2[C@@H]3CCC4=CC(=O)C=C[C@]4(C)[C@@]3(F)[C@@H](O)C[C@]2(C)[C@@]1(O)C(=O)CO [Dexamethasone, dexamethasone], the “GIU50/mL (X ± SE)” value ([1]; ip) was 70 ± 18 GIU50/mL.
For Nc1ccn([C@@H]2O[C@H](CO)[C@@H](O)C2(F)F)c(=O)n1 [Gemcitabine, gemcitabine], the “GIU50/mL (X ± SE)” value [1, 4] was 40 ± 6 GIU50/mL and the “effect on serum inhibitory activity” value [1] was “significant reduction”.
